Earlier results as cited in US10080720B2, “Pharmaceutical composition containing docetaxel” (GAINIA (SHANGHAI) PATENT TECHNOLOGY LTD., priority 2014, dated 2018).

solubility of docetaxel in water: 6 to 7 µg/mL
SMILES: CC(=O)O[C@@]12CO[C@@H]1C[C@H](O)[C@@]1(C)C(=O)[C@H](O)C3=C(C)[C@@H](OC(=O)[C@H](O)[C@@H](NC(=O)OC(C)(C)C)c4ccccc4)C[C@@](O)([C@@H](OC(=O)c4ccccc4)[C@H]21)C3(C)C [docetaxel]
